In publication PMC7556031, “Tofacitinib and Baricitinib Are Taken up by Different Uptake Mechanisms Determining the Efficacy of Both Drugs in RA” (International Journal of Molecular Sciences, 2020):

Target: T1, hMATE1 (multidrug and toxin extrusion protein 1) (Homo sapiens, UniProt Q96FL8)
T1 construct: gene SLC47A1; hMATE1 stably transfected in HEK293 cells
T1 sequence (Q96FL8 1-570): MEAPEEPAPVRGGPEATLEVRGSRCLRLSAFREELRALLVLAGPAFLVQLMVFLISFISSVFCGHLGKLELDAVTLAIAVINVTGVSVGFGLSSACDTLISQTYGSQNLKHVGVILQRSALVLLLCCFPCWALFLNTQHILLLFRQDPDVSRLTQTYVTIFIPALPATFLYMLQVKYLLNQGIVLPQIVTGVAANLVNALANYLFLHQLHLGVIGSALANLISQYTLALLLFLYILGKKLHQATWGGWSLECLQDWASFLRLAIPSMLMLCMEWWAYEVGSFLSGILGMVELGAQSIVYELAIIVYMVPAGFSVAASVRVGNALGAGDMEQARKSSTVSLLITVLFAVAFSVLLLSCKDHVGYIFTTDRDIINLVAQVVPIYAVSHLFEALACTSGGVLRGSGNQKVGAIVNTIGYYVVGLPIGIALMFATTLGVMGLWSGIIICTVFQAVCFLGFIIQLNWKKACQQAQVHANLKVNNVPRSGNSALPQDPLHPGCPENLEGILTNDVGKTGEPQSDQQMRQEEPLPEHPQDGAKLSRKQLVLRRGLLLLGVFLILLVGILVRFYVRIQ
Assay: cis-inhibition of ASP+ uptake in hMATE1-HEK293 cells after acidification; supported by LC/MS of temperature-dependent tofacitinib export
Format: cell-based

C[C@@H]1CCN(C(=O)CC#N)C[C@@H]1N(C)c1ncnc2[nH]ccc12 [Tofacitinib]
IC50: 19.8 µM
